From patent US9938269B2, “Inhibitor compounds of phosphodiesterase type 10A” (ABBVIE INC., priority 2011, dated 2018)
Structures can show the parent of a compound that is named as a salt.

Assays:
[1] = molecular target: T1, PDE10A (human) (Homo sapiens, UniProt Q9Y233); assay: Measurement of PDE activity (HTRF cAMP kit), human PDE10A; assay type: biochemical; conditions: PDE enzymatic reaction, substrate 20 nM for PDE10, 60 minutes at 29 C
T1 construct: purchased BPS Bioscience
Summary of the method: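 HTRF detection of cAMP left after hydrolysis, expressed as percent of uninhibited control to derive IC50. Reaction: serially diluted inhibitor mixed with recombinant enzyme, started with 20 nM cAMP, 60 min at 29 °C in Tris-HCl pH 7.5 buffer containing MgCl2 and BSA.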

[2] = Determination of the microsomal half-life, rat liver microsomes; conditions: rat, liver microsomes, pH 7.4
[3] = Determination of the microsomal half-life, human liver microsomes; conditions: human, liver microsomes, pH 7.4

T1 sequence (Q9Y233 whole entry): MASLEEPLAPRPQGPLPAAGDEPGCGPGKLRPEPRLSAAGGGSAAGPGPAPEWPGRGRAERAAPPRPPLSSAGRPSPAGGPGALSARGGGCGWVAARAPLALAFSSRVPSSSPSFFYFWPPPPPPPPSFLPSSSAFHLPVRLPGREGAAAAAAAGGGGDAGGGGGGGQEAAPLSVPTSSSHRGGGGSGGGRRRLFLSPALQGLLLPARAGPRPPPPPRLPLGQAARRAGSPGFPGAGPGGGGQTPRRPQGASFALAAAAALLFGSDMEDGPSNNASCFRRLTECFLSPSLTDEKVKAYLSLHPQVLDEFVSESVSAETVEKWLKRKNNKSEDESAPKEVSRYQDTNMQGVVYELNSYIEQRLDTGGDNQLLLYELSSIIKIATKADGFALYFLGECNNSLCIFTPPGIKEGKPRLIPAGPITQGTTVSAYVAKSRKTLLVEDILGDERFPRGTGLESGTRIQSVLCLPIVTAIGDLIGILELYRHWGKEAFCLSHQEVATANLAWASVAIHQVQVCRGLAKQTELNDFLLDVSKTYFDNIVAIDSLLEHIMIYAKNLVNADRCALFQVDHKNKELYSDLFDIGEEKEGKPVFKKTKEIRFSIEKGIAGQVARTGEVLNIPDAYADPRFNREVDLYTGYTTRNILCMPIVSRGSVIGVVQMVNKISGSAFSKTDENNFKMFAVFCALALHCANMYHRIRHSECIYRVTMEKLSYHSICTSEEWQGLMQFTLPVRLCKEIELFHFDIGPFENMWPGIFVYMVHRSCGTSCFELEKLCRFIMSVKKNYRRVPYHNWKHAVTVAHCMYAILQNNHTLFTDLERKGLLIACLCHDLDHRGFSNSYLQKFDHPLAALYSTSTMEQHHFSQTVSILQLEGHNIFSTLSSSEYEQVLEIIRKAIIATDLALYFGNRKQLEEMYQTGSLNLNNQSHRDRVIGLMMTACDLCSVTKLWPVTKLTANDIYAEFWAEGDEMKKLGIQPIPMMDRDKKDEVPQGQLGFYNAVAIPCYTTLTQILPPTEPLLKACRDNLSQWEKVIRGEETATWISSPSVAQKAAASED

| Compound | IC50 [1] | microsomal CLint at 0.5 μM [2] | microsomal CLint at 0.5 μM [3] |
| --- | --- | --- | --- |
| Cc1ncccc1COc1cccc2c1C(=O)N(CCc1ccc3ccccc3n1)C2 [Example 179, 7-(2-Methyl-pyridin-3-ylmethoxy)-2-(2-quinolin-2-yl-ethyl)-2,3-dihydro-isoindol-1-one] | < 100 nM | 100 to 220 µL/min/mg | > 220 µL/min/mg |
| COc1ccc(-c2cn[nH]c2)c2c1CN(CCc1ccc3ccccc3n1)C2=O [Example 180, 4-Methoxy-7-(1H-pyrazol-4-yl)-2-(2-quinolin-2-yl-ethyl)-2,3-dihydro-isoindol-1-one] | < 100 nM | > 220 µL/min/mg | 100 to 220 µL/min/mg |
| COc1ccc(-c2cncnc2)c2c1CN(CCc1ccc3ccccc3n1)C2=O [Example 183, 4-Methoxy-7-pyrimidin-5-yl-2-(2-quinolin-2-yl-ethyl)-2,3-dihydro-isoindol-1-one] | < 100 nM | 100 to 220 µL/min/mg | 100 to 220 µL/min/mg |
| COc1ccc(-c2cccnc2)c2c1CN(CCc1ccc3ccccc3n1)C2=O [Example 185, 4-Methoxy-7-pyridin-3-yl-2-(2-quinolin-2-yl-ethyl)-2,3-dihydro-isoindol-1-one trifluoroacetate] | < 100 nM | 100 to 220 µL/min/mg | > 220 µL/min/mg |
| CN(C)Cc1ccc(-c2cccc3c2C(=O)N(CCc2ccc4ccccc4n2)C3)cc1 [Example 188, 7-(4-Dimethylaminomethyl-phenyl)-2-(2-quinolin-2-yl-ethyl)-2,3-dihydro-isoindol-1-one (dihydrochloride)] | 200 to 500 nM | 100 to 220 µL/min/mg | 100 to 220 µL/min/mg |
| O=C1c2c(cccc2NC2CCS(=O)(=O)C2)CN1CCc1ccc2ccccc2n1 (stereo not drawn) [Example 190, 7-(1,1-Dioxo-tetrahydro-thiophen-3-ylamino)-2-(2-quinolin-2-yl-ethyl)-2,3-dihydro-isoindol-1-one] | 100 to 200 nM | 100 to 220 µL/min/mg | 100 to 220 µL/min/mg |
| NCc1ccc(-c2cccc3c2C(=O)N(CCc2ccc4ccccc4n2)C3)cc1 [Example 193, 7-(4-Aminomethyl-phenyl)-2-(2-quinolin-2-yl-ethyl)-2,3-dihydro-isoindol-1-one] | 100 to 200 nM | < 100 µL/min/mg | < 100 µL/min/mg |
| CNCc1ccc(-c2cccc3c2C(=O)N(CCc2ccc4ccccc4n2)C3)cc1 [Example 194, 7-(4-Methylaminomethyl-phenyl)-2-(2-quinolin-2-yl-ethyl)-2,3-dihydro-isoindol-1-one] | 200 to 500 nM | 100 to 220 µL/min/mg | 100 to 220 µL/min/mg |
| O=C1c2cccc(-c3cc[nH]n3)c2CN1CCc1ccc2ccccc2n1 [Example 200, 4-(1H-Pyrazol-3-yl)-2-(2-quinolin-2-yl-ethyl)-2,3-dihydro-isoindol-1-one] | < 100 nM | > 220 µL/min/mg | 100 to 220 µL/min/mg |
| Cn1nccc1-c1cccc2c1CN(CCc1ccc3ccccc3n1)C2=O [Example 202, 4-(2-Methyl-2H-pyrazol-3-yl)-2-(2-quinolin-2-yl-ethyl)-2,3-dihydro-isoindol-1-one trifluoroacetate] | < 100 nM | > 220 µL/min/mg | 100 to 220 µL/min/mg |
| COc1ccc(-c2ccnn2C)c2c1CN(CCc1ccc3ccccc3n1)C2=O [Example 210, 4-Methoxy-7-(2-methyl-2H-pyrazol-3-yl)-2-(2-quinolin-2-yl-ethyl)-2,3-dihydro-isoindol-1-one] | < 100 nM | > 220 µL/min/mg | 100 to 220 µL/min/mg |
| O=C1c2c(-c3cncnc3)ccnc2CN1CCc1nc2ccccn2n1 [Example 215, 4-Pyrimidin-5-yl-6-(2-[1,2,4]triazolo[1,5-a]pyridin-2-yl-ethyl)-6,7-dihydro-pyrrolo[3,4-b]pyridin-5-one] | 200 to 500 nM | < 100 µL/min/mg | < 100 µL/min/mg |

Next, values leading:

| IC50 [1] | microsomal CLint at 0.5 μM [2] | microsomal CLint at 0.5 μM [3] | Compound |
| --- | --- | --- | --- |
| < 100 nM | < 100 µL/min/mg | < 100 µL/min/mg | O=C1Cc2ccc(-c3ccnc4c3C(=O)N(CCc3ccc5ccccc5n3)C4)cc2N1 [Example 165, 4-(2-oxo-2,3-dihydro-1H-indol-6-yl)-6-(2-quinolin-2-yl-ethyl)-6,7-dihydro-pyrrolo[3,4-b]pyridin-5-one] |
| < 100 nM | < 100 µL/min/mg | < 100 µL/min/mg | O=C1c2c(-c3cncnc3)ccnc2CN1CCc1ccc2ccccc2n1 [Example 166, 4-Pyrimidin-5-yl-6-(2-quinolin-2-yl-ethyl)-6,7-dihydro-pyrrolo[3,4-b]pyridin-5-one] |
| 100 to 200 nM | < 100 µL/min/mg | < 100 µL/min/mg | O=C1c2c(cccc2N2CCS(=O)(=O)CC2)CN1CCc1nc2ccccc2[nH]1 [Example 175, 2-[2-(1H-Benzoimidazol-2-yl)-ethyl]-7-(1,1-dioxo-thiomorpholin-4-yl)-2,3-dihydro-isoindol-1-one] |
| < 100 nM | < 100 µL/min/mg | 100 to 220 µL/min/mg | Cn1c(CCN2Cc3cccc(N4CCS(=O)(=O)CC4)c3C2=O)nc2ccccc21 [Example 184, 7-(1,1-Dioxothiomorpholin-4-yl)-2-[2-(1-methyl-1H-benzoimidazol-2-yl)-ethyl]-2,3-dihydro-isoindol-1-one trifluoroacetate] |
| < 100 nM | 100 to 220 µL/min/mg | 100 to 220 µL/min/mg | COc1ccc(N2CCS(=O)(=O)CC2)c2c1CN(CCc1ccc3ccccc3n1)C2=O [Example 189, 7-(1,1-Dioxo-thiomorpholin-4-yl)-4-methoxy-2-(2-quinolin-2-yl-ethyl)-2,3-dihydro-isoindol-1-one] |
| < 100 nM | 100 to 220 µL/min/mg | > 220 µL/min/mg | Cn1c(CCN2Cc3cccc(-c4ccncc4)c3C2=O)nc2ccccc21 [Example 195, 2-[2-(1-Methyl-1H-benzoimidazol-2-yl)-ethyl]-7-pyridin-4-yl-2,3-dihydro-isoindol-1-one] |
| < 100 nM | < 100 µL/min/mg | > 220 µL/min/mg | Cn1c(CCN2Cc3cccc(-c4cccnc4)c3C2=O)nc2ccccc21 [Example 196, 2-[2-(1-Methyl-1H-benzoimidazol-2-yl)-ethyl]-7-pyridin-3-yl-2,3-dihydro-isoindol-1-one] |
| < 100 nM | < 100 µL/min/mg | 100 to 220 µL/min/mg | Cn1c(CCN2Cc3cccc(-c4cncnc4)c3C2=O)nc2ccccc21 [Example 197, 2-[2-(1-Methyl-1H-benzoimidazol-2-yl)-ethyl]-7-pyrimidin-5-yl-2,3-dihydro-isoindol-1-one] |
| 100 to 200 nM | < 100 µL/min/mg | < 100 µL/min/mg | Cn1nccc1-c1ccnc2c1C(=O)N(CCc1nc3ccccc3n1C)C2 [Example 214, 6-[2-(1-Methyl-1H-benzoimidazol-2-yl)-ethyl]-4-(2-methyl-2H-pyrazol-3-yl)-6,7-dihydro-pyrrolo[3,4-b]pyridin-5-one] |
| < 100 nM | < 100 µL/min/mg | < 100 µL/min/mg | Cn1c(CCN2Cc3nccc(N4CCOCC4)c3C2=O)nc2ccccc21 [Example 216, 6-[2-(1-Methyl-1H-benzoimidazol-2-yl)-ethyl]-4-morpholin-4-yl-6,7-dihydro-pyrrolo[3,4-b]pyridin-5-one] |
